Test results published in US10294230B2, “3,3-difluoropiperidine carbamate heterocyclic compounds as NR2B NMDA receptor antagonists” (Rugen Holdings (Cayman) Limited, priority 2015, dated 2019).
Where two headings read alike, the source gives them in different places.

Legend:
NR2B receptor = NR2B receptor (Rattus norvegicus (Rat), UniProt P35439+Q00960); assay: [3H] (E)-N1-(2-methoxybenzyl)-cinnamidine radioligand binding, rat brain membranes; details: for Ki: read-out: Ki at the NR2B receptor high affinity site
Procedure: (§1) This example describes NMDA receptor binding assays using two different radioligands, [^3H] […] An established binding assay using the non-selective NMDA receptor ligand [^3H] […] The binding assay method using the NR2B selective receptor ligand [^3H] […] This assay serves as a selective measure of NR2B receptor binding activity in native rat brain receptors. Briefly, the brains of Male Wistar rats were homogenized (Polytron) before centrifugation at 40,000×g for 15 minutes at 4° C. After 2 washes, the final pellet was homogenized and stored at −80° C. The protein concentration was determined by Bradford assay.
[^3H] […] Thus, using [^3H]
(§2) Test compounds were solubilized at 10 mM in DMSO. Then the dilutions were performed with a constant solvent concentration (1% DMSO) in the assay.
(§3) After incubation for 4.5 h at room temperature, the assays were filtered on GF/B filters pretreated with 0.3% (v/v) PEI with a Brandel system for [^3H] […] The experiment was performed in duplicate (n=2).

NMDA receptor = assay: [3H] MK-801 radioligand binding, rat brain membranes; details: 2 nM [3H] MK-801
Procedure: as §1, §2, §3

CYP2D6 = CYP2D6 (Homo sapiens (Human), UniProt P10635); assay: CYP P450 enzyme inhibition, pooled human liver microsome; type: in vitro ADME; details: pooled HLM, dextromethorphan 5 μM
Procedure: Those CYP isoforms and their corresponding probe substrates are as follows: CYP1A2 (phenacetin, 30 μM), CYP2C9 (tolutamide, 100 μM), CYP2C19 (S-mephenytoin, 40 μM), CYP2D6 (dextromethorphan, 5 μM) and CYP3A4 (midazolam, 1 μM). All probe substrates were used at concentrations near or below their Kms. For experiment, a reaction mixture of test compound at 10 μM or in serial dilution, CYP probe substrate described above and 0.2 mg/mL pooled HLM in phosphate buffer, pH 7.4 in a final volume of 200 μL was pre-incubated at 37° C. for 10 minutes in triplicate. The reaction was initiated by addition of NADPH at final concentration of 1 mM. The reaction was terminated after 10 minutes (CYP1A2, CYP2D6 and CYP3A4) or 30 minutes (CYP2C9 and CYP2C19) by addition of 100 μL ice-cold acetonitrile with internal standard (IS). The samples were then centrifuged at 13,000 rpm and the supernatants were injected to LC-MS/MS (Agilent Technologies) to quantify the concentration of the specific metabolites of the probe substrates formed by individual CYP450 isoforms. The inhibition ratio is calculated as: (Mt−M0)/Mwater×100% in which Mt and M0 represent the concentrations of the specific probe substrate metabolite, which was formed by individual CYP450 isoform, at the beginning and end of the reaction in the presence of test compound; while Mwater represents the concentration of the specific metabolite at the end of the reaction in the absence of test compound. Test compound concentration-dependent response data experiments performed in triplicate.

human NR1/NR2A = human NR1/NR2A (Homo sapiens (Human), UniProt Q05586+Q12879); assay: NR2A antagonist activity, Fluo-4 calcium influx in HEK293 cells; type: cell-based; details: Table 2.1, glutamate 100 μM, glycine 50 μM
Procedure: (§4) HEK293 cell lines stably expressing cloned human NR1/NR2B and NR1/NR2A, respectively, were established according to standard previously described methods (Hansen et al., Comb. Chem High Throughput Screen. 11:304, 2008). Activation of the NR2A or NR2B subtype of NMDA receptor with glutamate as an agonist and glycine co-agonist on these cells results in calcium influx, which can be monitored with fluorescent indicator Fluo-4.
(§5) For experiments, the cells were seeded onto poly-D-lysine-coated 96-well black plates with clear bottom (Corning) at a density of ˜50,000 cells/well. After overnight culture, the growth medium was removed from the wells and the cells were incubated at 37° C. for 60 min in Hanks buffer containing 4 μM fluo-4-AM (Invitrogen) and 0.1% bovine serum albumin (BSA). After dye-loading, the cells were washed three times with Hanks buffer and incubated for 10 min at room temperature with various concentrations of test compounds prepared in Hanks buffer with 0.1% BSA. The cell plates were placed onto FDSS pCell fluorescence reader (Hamamatsu). After 20 sec reading of background fluorescence, agonist glutamate at final 100 μM and co-agonist glycine at final 50 μM were added to the cells to activate the receptor, and the resulting fluorescence changes were recorded and quantified. Based on the changes in fluorescence intensity, the pharmacological effect of test compounds were analyzed and the IC50 values derived from a non-linear least squares fitting of the concentration-dependent response to a standard logistic equation using Prism (Graphpad, Inc): Amplitude=Max Amplitude/(1+(IC50/[antagonist])^n).

hERG channel = hERG channel (Homo sapiens (Human), UniProt Q12809); assay: hERG channel inhibition, whole cell patch clamp in HEK293 cells; type: cell-based; details: for IC50: HEK293, whole cell patch clamp
Procedure: The assay was performed on hERG channel stably expressed in HEK293 cells. The cells were cultured at 37° C. in a humidified CO2 incubator in the growth medium consisting of DMEM, 10% fetal bovine serum and antibiotics. Prior to the assay, the cells were seeded onto a 12 mm PDL-coated glass coverslip and cultured in a 35 mm Petri dish. After 16 to 40 hr culture, the cover slip was transferred into the chamber of OctaFlow perfusion system (ALA Instrument) and under a constant flow of extracellular solution (140 mM NaCl, 4 mM KCl, 1 mM MgCl2, 2 mM CaCl2, 10 mM HEPES, 10 mM D-glucose, pH 7.35, osmolarity 290). Whole cell patch clamping was performed with a glass micropipette filled with intracellular solution (120 mM KCl, 1.75 mM MgCl2, 5.4 mM CaCl2, 10 mM HEPES, 10 mM EGTA, and 4 mM ATP-K2, PH 7.2, osmolarity 310). Giga-seal was maintained during the test. The voltage control and current measurement were carried out using Axon amplifier 700B, Digidata 1440A and CLAMPEX10 software (Molecular Devices). Whole-cell hERG currents were recorded following the Petroski protocol: the cell was held at −80 mV, and the voltage step jumped from −80 to 30 mV and stay for 2 sec with a 20 ms prepulse at −40 mV. After depolarization, the voltage was decreased to −40 mV and stay for 2 sec, and returned back to −80 mV. Test compound was applied by quartz capillary tubes tip (200 μm inner diameter), and the flow rate was controlled at 2-3 ml/min with OctaFlow perfusion system. Different concentrations of the compound were applied to the cells for 5 min and the hERG current was measured three times before, during and after compound treatment. The data were analyzed using Clampfit 10 software (Molecular Devices) to generate IC50 values.

human NR1/NR2B = human NR1/NR2B (Homo sapiens (Human), UniProt Q05586+Q13224); assay: NR2B antagonist activity, Fluo-4 calcium influx in HEK293 cells; type: cell-based
Procedure: as §4, §5

[1] = tested on: electroconvulsive threshold (tonic convulsions); assay: Electroconvulsive Threshold Test (ECT); type: in vivo, rats; details: rats
Procedure: Test compound E1-8.2 was administered as the free base.
Rats were administered ECS (rectangular current: 0.6 ms pulse width, 1.5 s duration, 200 Hz) via earclip electrodes connected to a constant current shock generator (Ugo Basile: type 7801). Test compounds were administered by oral gavage (p.o.) 1 hour before the test at a dose volume of 5 mL/kg.
Treatment groups of 20 rats were exposed to ECS as follows: The first animal was exposed to 30 mA of ECS. […] (increases of 5 mA) until the first tonic convulsion was observed. Once the first tonic convulsion was observed, the intensity of ECS was decreased by 2 mA for the next animal and then decreased or increased by 2 mA from animal to animal depending on whether the previous animal convulsed or not. If the first animal did convulse (tonic convulsions) within 5 seconds, animal no2 is exposed to 25 mA, etc. . . . (decreases of 5 mA) until the absence of tonic convulsions was observed. At this point, the intensity of ECS was increased by 2 mA for the next animal and then decreased or increased by 2 mA from animal to animal depending on whether the previous animal convulsed or not. The minimum current intensity applied is 5 mA and the maximum 95 mA. The first 5 animals serve to approach threshold current and were not included in the analysis. The results are presented as the mean current intensity administered to the final 15 animals of a group. The test was performed blind. A positive percent change indicates an anticonvulsant effect. A negative percent change indicates a proconvulsant effect. The test substance was evaluated at 4 doses, typically using 0.5% dimethylsulfoxide, 4% hydroxypropyl-b-cyclodextrin water as a vehicle, and administered p.o. 60 minutes before ECS, and compared with a vehicle control group. Diazepam (16 mg/kg p.o.), administered under the same experimental conditions, was used as reference substance. The experiment included 6 groups. Data with the test substance was analyzed by comparing treated groups with vehicle control using one-way ANOVA followed by Dunnett's t tests.

[2] = tested on: KCl-induced cortical spreading depression; assay: Cortical Spreading Depression (CSD), aura phase of migraine model; type: in vivo; details: rats
Procedure: The cortical spreading depression model is utilized to investigate whether treatment with compounds of the present invention affect electrophysiological and hemodynamic events in a rat model of migraine.
Rats were anesthetized with 5% isoflurane (in 70% N2O and 30% O2; flow 300 ml/min) and placed in a stereotactic frame. […] The rectal temperature was maintained at 37.0±1.0° C. with a homeothermic blanket system. The skin was opened by a medial incision and retracted laterally. Three burr holes were drilled under saline cooling over the right hemisphere at the following coordinates (mm from bregma): (1) posterior 4.5, lateral, 2.0 (occipital cortex): KCl application site; (2) posterior 0.5, lateral 2.0 (parietal cortex): LDF recording site; (3) anterior 2, lateral 2 (frontal cortex): DC potential recording site. A laser-Doppler flow probe (Oxyflow, Oxford Optronics, UK) to monitor CBF and an invasive Ag/AgCl electrode for measuring direct current (DC) potential shifts were placed in the parietal and frontal cortex burr holes on the intact dura and in the cortex, respectively. The laser-Doppler flow probe was positioned in an area free of large pial and dural vessels to minimize a large-vessel contribution to the signal. For the DC-potential measurement, a reference electrode was fixed in the neck. Dura overlying the occipital cortex was gently removed and care was taken to avoid bleeding. After surgical preparation, the cortex was allowed to recover for 15 minutes under saline irrigation. A cotton ball (2 mm diameter) soaked with 1M KCl was placed on the pial surface and kept moist by placing 5 μl of KCl solution every 15 minutes. Test compound or vehicle was administered ten (10) minutes prior to CSD initiation. […] The number of KCl-induced CSDs was counted for 2 hours. The CBF and DC-potentials were monitored continuously starting from 5 minutes before KCl exposure.
Test compound E1-1.2 was administered as a mesylate salt (mpk based on molecular weight of the mesylate salt).
The data was collected in Windaq acquisition software (Dataq Instruments, USA) at 20 kHz. The raw data was analyzed in Clampfit program (Axon Instruments, USA). The signals were low pass filtered (cut off range 5-10000 Hz) that CSD episodes in DC and CBF could be confirmed. The following parameters were analyzed: i) the number, duration and amplitude of DC-potentials, and ii) the number and amplitude of CBF events.
Doses were given as milligram per kilogram (mpk). […] Bars represent mean±Standard Error of Mean (SEM), and differences were considered to be statistically significant at the P<0.05 level (n=8, * different from vehicle group). Statistical analysis was performed using StatsDirect statistical software. Differences between groups were analyzed by using 1-way ANOVA and Dunnett's post hoc test.

[3] = Table 2.1, HEK293 human NR1/NR2B, glutamate 100 μM, glycine 50 μM
[4] = E1-1.2 at various doses, MK-801 1.25 mg/kg

Sequence of CYP2D6 (P10635 whole entry): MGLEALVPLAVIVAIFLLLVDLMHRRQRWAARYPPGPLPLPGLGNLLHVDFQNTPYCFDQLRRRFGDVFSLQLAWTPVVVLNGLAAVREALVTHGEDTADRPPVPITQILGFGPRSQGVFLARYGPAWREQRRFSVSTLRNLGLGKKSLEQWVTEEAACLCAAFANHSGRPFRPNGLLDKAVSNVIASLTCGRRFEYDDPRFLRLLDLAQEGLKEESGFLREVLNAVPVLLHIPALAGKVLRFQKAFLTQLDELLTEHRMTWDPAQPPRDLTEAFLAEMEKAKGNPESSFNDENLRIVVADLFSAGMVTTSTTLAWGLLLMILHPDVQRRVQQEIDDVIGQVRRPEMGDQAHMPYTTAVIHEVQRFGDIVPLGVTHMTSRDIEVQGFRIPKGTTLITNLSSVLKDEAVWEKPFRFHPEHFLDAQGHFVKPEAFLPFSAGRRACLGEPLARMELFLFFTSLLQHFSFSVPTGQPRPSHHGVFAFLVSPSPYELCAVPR
Sequence of hERG channel (Q12809 whole entry): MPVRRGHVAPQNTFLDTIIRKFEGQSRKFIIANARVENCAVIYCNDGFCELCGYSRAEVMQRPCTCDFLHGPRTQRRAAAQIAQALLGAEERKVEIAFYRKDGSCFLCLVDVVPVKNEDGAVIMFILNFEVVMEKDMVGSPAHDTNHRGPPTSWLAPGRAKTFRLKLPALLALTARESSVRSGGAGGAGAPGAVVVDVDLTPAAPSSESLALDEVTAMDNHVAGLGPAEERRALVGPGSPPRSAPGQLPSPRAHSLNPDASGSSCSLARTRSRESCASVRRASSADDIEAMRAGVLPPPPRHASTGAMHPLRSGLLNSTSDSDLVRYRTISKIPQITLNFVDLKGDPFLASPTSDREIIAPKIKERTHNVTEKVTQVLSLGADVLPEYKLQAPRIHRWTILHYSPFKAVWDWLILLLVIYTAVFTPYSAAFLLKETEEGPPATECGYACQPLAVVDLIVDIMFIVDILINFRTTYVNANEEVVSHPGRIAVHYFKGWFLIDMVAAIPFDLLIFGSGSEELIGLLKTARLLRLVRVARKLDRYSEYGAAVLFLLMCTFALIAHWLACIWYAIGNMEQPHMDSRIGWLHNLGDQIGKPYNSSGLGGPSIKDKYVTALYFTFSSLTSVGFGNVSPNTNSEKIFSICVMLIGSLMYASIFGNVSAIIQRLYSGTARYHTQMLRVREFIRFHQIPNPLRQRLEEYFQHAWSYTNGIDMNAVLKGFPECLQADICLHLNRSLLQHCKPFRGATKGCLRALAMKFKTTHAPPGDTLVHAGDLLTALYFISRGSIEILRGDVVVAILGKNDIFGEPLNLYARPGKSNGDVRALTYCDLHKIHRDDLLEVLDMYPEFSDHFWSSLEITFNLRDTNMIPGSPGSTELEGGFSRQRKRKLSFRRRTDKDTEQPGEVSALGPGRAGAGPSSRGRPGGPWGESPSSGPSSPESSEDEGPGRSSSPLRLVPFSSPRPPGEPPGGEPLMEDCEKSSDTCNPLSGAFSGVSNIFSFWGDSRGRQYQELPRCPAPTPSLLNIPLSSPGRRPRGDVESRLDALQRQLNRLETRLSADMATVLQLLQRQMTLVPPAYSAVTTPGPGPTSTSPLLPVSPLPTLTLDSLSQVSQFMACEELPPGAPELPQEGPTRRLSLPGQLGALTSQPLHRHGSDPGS
Sequence of human NR1/NR2B (Q13224 27-1484, other chains not shown): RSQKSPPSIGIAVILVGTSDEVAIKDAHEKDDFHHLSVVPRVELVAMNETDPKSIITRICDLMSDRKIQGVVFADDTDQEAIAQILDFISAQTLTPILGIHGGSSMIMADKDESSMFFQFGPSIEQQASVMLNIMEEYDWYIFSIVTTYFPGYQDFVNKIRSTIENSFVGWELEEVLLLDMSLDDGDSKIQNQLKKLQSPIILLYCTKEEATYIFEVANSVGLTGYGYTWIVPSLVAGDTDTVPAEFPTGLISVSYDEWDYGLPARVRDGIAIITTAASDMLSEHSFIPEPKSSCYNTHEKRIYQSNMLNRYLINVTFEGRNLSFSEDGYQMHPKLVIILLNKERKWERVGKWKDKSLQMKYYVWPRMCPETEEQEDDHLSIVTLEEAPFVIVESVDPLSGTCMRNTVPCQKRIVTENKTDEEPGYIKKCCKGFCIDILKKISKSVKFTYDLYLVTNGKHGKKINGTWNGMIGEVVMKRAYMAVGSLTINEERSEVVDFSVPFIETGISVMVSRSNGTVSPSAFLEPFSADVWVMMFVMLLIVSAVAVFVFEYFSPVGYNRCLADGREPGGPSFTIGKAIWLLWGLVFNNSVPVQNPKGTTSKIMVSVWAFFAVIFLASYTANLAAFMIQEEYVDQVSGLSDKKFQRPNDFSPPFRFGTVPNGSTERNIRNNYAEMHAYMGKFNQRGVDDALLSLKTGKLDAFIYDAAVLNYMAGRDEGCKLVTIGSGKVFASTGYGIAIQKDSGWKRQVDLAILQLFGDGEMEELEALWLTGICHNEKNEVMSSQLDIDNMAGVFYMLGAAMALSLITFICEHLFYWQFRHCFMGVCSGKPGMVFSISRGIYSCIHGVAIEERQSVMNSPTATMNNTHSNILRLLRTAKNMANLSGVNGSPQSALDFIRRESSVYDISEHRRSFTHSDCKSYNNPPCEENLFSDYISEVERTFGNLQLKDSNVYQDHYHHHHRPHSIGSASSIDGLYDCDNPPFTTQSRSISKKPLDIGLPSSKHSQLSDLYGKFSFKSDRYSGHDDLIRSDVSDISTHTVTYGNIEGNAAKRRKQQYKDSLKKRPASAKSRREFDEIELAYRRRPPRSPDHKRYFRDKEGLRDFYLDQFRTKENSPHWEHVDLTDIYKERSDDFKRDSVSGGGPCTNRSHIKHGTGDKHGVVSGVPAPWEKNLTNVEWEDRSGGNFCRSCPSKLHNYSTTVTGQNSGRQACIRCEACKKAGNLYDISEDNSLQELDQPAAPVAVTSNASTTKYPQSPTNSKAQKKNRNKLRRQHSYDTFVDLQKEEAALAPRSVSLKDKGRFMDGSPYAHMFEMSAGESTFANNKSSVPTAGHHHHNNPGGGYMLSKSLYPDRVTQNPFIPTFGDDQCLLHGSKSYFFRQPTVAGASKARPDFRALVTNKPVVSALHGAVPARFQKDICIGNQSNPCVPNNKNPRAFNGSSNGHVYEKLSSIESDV
Sequence of NR2B receptor (Q00960 27-1482, other chains not shown): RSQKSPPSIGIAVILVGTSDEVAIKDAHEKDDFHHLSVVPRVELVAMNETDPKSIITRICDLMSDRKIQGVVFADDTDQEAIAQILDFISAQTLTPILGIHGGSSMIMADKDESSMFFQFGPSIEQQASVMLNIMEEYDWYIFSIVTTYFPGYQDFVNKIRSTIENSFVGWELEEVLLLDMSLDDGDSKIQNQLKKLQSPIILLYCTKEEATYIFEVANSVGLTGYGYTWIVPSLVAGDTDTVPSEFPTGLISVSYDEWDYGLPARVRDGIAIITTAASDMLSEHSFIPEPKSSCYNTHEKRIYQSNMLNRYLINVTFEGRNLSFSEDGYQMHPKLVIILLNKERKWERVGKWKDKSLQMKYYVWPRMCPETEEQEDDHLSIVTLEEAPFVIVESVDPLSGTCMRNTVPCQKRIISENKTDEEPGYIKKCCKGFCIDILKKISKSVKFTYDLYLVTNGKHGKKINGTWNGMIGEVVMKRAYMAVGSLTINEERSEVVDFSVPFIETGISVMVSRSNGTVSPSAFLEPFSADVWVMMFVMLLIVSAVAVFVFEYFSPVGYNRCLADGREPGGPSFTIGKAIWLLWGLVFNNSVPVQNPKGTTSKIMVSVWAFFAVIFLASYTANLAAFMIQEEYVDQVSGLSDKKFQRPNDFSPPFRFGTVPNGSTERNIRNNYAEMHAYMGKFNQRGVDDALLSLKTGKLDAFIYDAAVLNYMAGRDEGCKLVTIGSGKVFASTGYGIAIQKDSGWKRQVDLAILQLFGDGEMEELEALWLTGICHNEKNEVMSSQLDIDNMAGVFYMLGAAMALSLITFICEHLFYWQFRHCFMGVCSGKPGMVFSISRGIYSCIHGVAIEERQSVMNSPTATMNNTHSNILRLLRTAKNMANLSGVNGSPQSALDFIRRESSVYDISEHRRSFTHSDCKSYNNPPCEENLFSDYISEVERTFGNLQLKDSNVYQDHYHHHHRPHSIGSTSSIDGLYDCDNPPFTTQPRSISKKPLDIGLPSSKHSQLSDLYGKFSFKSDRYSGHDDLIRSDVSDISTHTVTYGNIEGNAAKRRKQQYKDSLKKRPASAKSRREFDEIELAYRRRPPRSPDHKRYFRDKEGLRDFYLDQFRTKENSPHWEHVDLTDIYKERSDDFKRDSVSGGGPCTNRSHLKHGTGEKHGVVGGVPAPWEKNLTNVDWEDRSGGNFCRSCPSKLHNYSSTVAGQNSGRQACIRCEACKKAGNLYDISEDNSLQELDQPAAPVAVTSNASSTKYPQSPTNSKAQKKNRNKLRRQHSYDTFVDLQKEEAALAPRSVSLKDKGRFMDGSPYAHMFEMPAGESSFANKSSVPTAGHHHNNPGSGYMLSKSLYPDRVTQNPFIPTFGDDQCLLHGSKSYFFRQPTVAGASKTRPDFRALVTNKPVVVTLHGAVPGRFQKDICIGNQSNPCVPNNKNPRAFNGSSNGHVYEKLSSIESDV

Compound	displacement of [3H] (E)-N1-(2-methoxybenzyl)-cinnamidine at the NR2B receptor high affinity site (NR2B receptor; rat brain membranes)	partial effect on [3H] MK-801 binding (NMDA receptor)	CYP2D6 @ 10 μM (%) (CYP2D6)	hERG @ 10 μM (%) (hERG channel)	IC50 (human NR1/NR2B; [3])	IC50 (human NR1/NR2B; Table 2.2)	IC50 (human NR1/NR2B; Table 2.3)	also measured
COc1ccccc1CNC(=N)/C=C/c1ccccc1 [(E)-N1-(2-methoxybenzyl)-cinnamidine, reference compound]	–	–	–	–	–	–	–	Ki (NR2B receptor; rat brain membranes, [3H] (E)-N1-(2-methoxybenzyl)-cinnamidine): 0.18 nM
CCc1ccc(COC(=O)N2CC[C@H](CNc3nccn4cnnc34)C(F)(F)C2)cc1 [Compound E1-1.5, R-4-ethylbenzyl 4-(([1,2,4]triazolo[4,3-a]pyrazin-8-ylamino)methyl)-3,3-difluoropiperidine-1-carboxylate]	97%	48%	–	–	–	–	–	–
Cc1ccc(COC(=O)N2CC[C@H](CNc3cncc4nncn34)C(F)(F)C2)cc1 [Compound E1-2.2, R-4-methylbenzyl 4-(([1,2,4]triazolo[4,3-a]pyrazin-5-ylamino)methyl)-3,3-difluoropiperidine-1-carboxylate]	–	–	18%	32%	10.4 nM	10.4 nM	10.4 nM	IC50 (human NR1/NR2A): > 10000 nM
Cc1ccc(COC(=O)N2CC[C@H](CNc3ncc4cn[nH]c4n3)C(F)(F)C2)cc1 [Compound E1-8.2, (+)-R-4-methylbenzyl-4-((1H-pyrazolo[3,4-d]pyrimidin-6-ylamino)methyl)-3,3-difluoropiperidine-1-carboxylate]	95%	33%	83%	57%	17 nM	17 nM	17 nM	electroconvulsive threshold, pro-/anticonvulsant activity ([1]; 0.5 and 2 mpk p.o., free base): modest proconvulsant activity; electroconvulsive threshold, pro-/anticonvulsant activity ([1]; 10 and 20 mpk p.o., free base): anticonvulsant activity; IC50 (CYP2D6): 5900 nM; IC50 (hERG channel): 6800 nM
Cc1ccc(COC(=O)N2CC[C@H](CNc3nc4ccccn4n3)C(F)(F)C2)cc1 [Compound E1-9.2, (+)-R-4-methylbenzyl 4-(([1,2,4]triazolo[1,5-a]pyridin-2-ylamino)methyl)-3,3-difluoropiperidine-1-carboxylate]	97%	34%	14%	38%	48.2 nM	48.2 nM	48.2 nM	Ki (NR2B receptor): 11.3 nM
Cc1ccc(COC(=O)N2CC[C@H](CNc3ncccn3)C(F)(F)C2)cc1 [Compound E1-22.2, (+)-R-4-methylbenzyl 3,3-difluoro-4-((pyrimidin-2-ylamino)methyl)-piperidine-1-carboxylate]	–	–	–	–	–	–	–	IC50 (hERG channel): > 10000 nM
Cc1ccc(COC(=O)N2CC[C@@H](CNc3nccn4cnnc34)C(F)(F)C2)cc1 [Compound E2-1.2, (−)-S-4-methylbenzyl 4-(([1,2,4]triazolo[4,3-a]pyrazin-8-ylamino)methyl)-3,3-difluoropiperidine-1-carboxylate]	98%	36%	–	22%	156 nM	156 nM	156 nM	IC50 (human NR1/NR2A): > 10000 nM; Ki (NR2B receptor): 74.3 nM
FC(F)(F)c1ccc(C(F)(F)CN2CCC(Nc3ncnc4[nH]ncc34)CC2)cc1 [LX-1, reference compound]	–	–	93%	–	–	–	–	–
CN1C(=O)CN=C(c2ccccc2)c2cc(Cl)ccc21 [diazepam, reference compound]	–	–	–	–	–	–	–	electroconvulsive threshold, pro-/anticonvulsant activity ([1]; 16 mpk p.o.): expected anticonvulsant activity
Cn1c(=O)c2[nH]cnc2n(C)c1=O [theophylline, reference compound]	–	–	–	–	–	–	–	electroconvulsive threshold, pro-/anticonvulsant activity ([1]; 128 mpk p.o.): expected proconvulsant activity
MK-801 [reference compound]	–	–	–	–	–	–	–	number of CBF events vs vehicle ([2]; E1-1.2 at 10 mg/kg, MK-801 at 1.25 mg/kg): decreased; amplitude of DC potentials vs vehicle [2, 4]: not statistically different; duration of DC potentials vs vehicle [2, 4]: increased
